Entries after “also recorded” stand apart in the source; their conditions may differ. Read-outs that look alike come from different tables or passages of the source.
Legend:
[1] = Clinical PK: olaparib in tumor core, tumor margin and plasma of recurrent GBM patients (LC-MS); format: in vivo, human; conditions: for Kp: human, tumor and plasma, oral, ratio between tumor and plasma olaparib concentrations, surgical patients
Description: At neurosurgery, contrast-enhancing tumor regions identified on preoperative MRI scans were targeted for resection. Specimens were assessed by intraoperative cytology; 3 regions of viable, solid tumor from each patient were snap frozen for PK analysis by liquid chromatography mass spectrometry (LC-MS). In the expansion cohort, 5-ALA guided neurosurgery enabled discrimination of fluorescent “core” tissue from nonfluorescent “margin” tissue. Up to 3 tumor margin biopsies were taken from each patient, from each of which half was frozen for PK analysis and half fixed for histology.
100 mg q.d., n = 10; 150 mg q.d., n = 35; 200 mg b.i.d., n = 3. […] All measurements performed by LC-MS.

recurrent GBM = test: DCE-MRI of tumor perfusion and permeability before and after olaparib; format: in vivo, human; conditions: stage 1 and dose expansion patients, cycle 0
Description: Secondary endpoints included PFS at 6 months (PFS-6, assessed radiologically using the RANO criteria) and radiological measurement of BBB permeability and perfusion by diffusion weighted and dynamic contrast-enhanced (DCE) MRI. […] Further details of the imaging protocol are provided in the Supplementary Material. Confidence intervals for PFS data were calculated using the exact binomial distribution.
The imaging protocol included four pre-contrast spoiled fast field echo (T1-FFE spoiled gradient echo) sequences with different flip angles (2o, 8o, 15o, 16-20o) for calculation of baseline T1 maps allowing estimation of contrast concentration from observed signal changes and a dynamic, contrast enhanced acquisition series with identical acquisition parameters as the 4th variable flip angle baseline T1 measurement (16-20o), consisting of 100-120 volumes with temporal spacing of 5.1-5.5 seconds (s). Gadolinium-based contrast agent (Gd-DTPA-BMA; Omniscan, GE Healthcare, Oslo, Norway) was injected by pressure injector as a 3 ml bolus at 4 ml/s (dose 0.1 mmol/kg) after acquisition of the seventh image volume, followed by saline flush. Data were analysed using the hybrid model [Li, Jackson Mag Res Med 2003] and in-house software. ROI placement was manual and enhancing pixels were identified through significant change in signal intensity following administration of contrast. […]

G1 cells = test: Clonogenic survival radiosensitization assay; format: cell-based, human; conditions: G1, MGMT methylated, olaparib 100 nM, 1–5 Gy
Description: (§1) Canine kidney epithelial cells, stably expressing human MDR1 cDNA (Madin-Darby canine kidney type II [MDCKII]–MDR1 cells) or empty vector (MDCKII control), were used to model the intact BBB and determine permeability coefficients of (^14C)-olaparib in the presence of ketoconazole (25 μM). Whole body autoradiography was performed on male pigmented rats after single oral administration of [^14C]-olaparib (15 mg/kg; 5 MBq/kg). For autoradiography studies, animal care and experiments were carried out in accordance with AstraZeneca guidelines, which comply with UK standards. […] Xenograft experiments were performed under the relevant UK Home Office Project Licence and carried out with ethical approval from the University of Glasgow under the Animal (Scientific Procedures) Act 1986 and the EU directive 2010. Mice were maintained in individually ventilated cages with environmental enrichment and following the guidelines of ARRIVE (Animal Research: Reporting of In Vivo Experiments). […] Ratiometric t-test analysis determined SER confidence intervals and P-values. Further details are available in the Supplementary Material.
(§2) Visible colonies containing at least 50 cells were counted 14–21 days after treatment and surviving fraction calculated. The linear quadratic model was fitted using maximum likelihood estimation and integrated to determine the mean inactivation dose (MID) for each experimental condition.

E2 cells = test: Clonogenic survival radiosensitization assay; format: cell-based, human; conditions: E2, MGMT methylated, 1–5 Gy
Description: as §1, §2

[2] = Olaparib PK in mice bearing intracranial G7 GBM xenografts (mass spectrometry); format: in vivo, CD1 nude mice; conditions: 50 mg/kg
Description: as §1
(§3) Apparent permeability coefficients were calculated for apical to basolateral (Papp a‒b) and basolateral to apical transport (Papp b‒a) as described in Methods. […] (B) Single oral doses of 15 mg/kg [14C]-olaparib were administered to male pigmented rats that were subsequently culled, sectioned, and subjected to whole body autoradiography at the timepoints shown. Radioactivity was excluded from the central nervous system in all animals at all timepoints. […] Blood, tumor, and contralateral (non tumor bearing) brain were harvested and snap frozen at the time points shown. […] Note different y-axis scales.

MDR1 [3] = target: T1, MDR1 (Homo sapiens, UniProt P08183); test: Directional transport of [14C]-olaparib across MDCKII-MDR1 monolayers, with or without ketoconazole; format: in vitro ADME
T1 construct: host or cells: MDCKII (Madin-Darby canine kidney type II) cells stably expressing human MDR1 cDNA
Description: as §1, §3
Monolayers were cultured in Dulbeco’s Modified Eagle Medium (DMEM) supplemented with glucose (4.5 g/L), 10% fetal calf serum, penicillin and streptomycin on semi-permeable filter inserts (Transwell plates 3401, Costar, Cambridge, MA) for three days. Under these conditions MDR1 localises to the apical plasma membrane. Monolayer integrity was assessed by transepithelial electrical resistance (TEER) measurement then inserts washed with Hank’s Balanced Salt Solution (HBSS) and transferred to 12-well plates containing HBSS (to measure apical to basal transport, a – b) or [14C]-olaparib diluted in HBSS (dose solution, to measure basal to apical transport, b – a). After addition of dose solution (a – b) or HBSS (b – a) to the apical chamber, samples of apical and basolateral compartments were collected immediately after dosing and after 120 minutes incubation. Three concentrations of 14C-olaparib were tested (0.1, 1 and 10 µM), each in three replicates. Radioactivity was determined by liquid scintillation counting. […] Transport of olaparib or reference substrate cimetidine was determined in MDCKII-BCRP cells. Apparent permeability coefficients (Papp) were calculated:
Efflux ratio = Papp b - a /a - b = Papp b - a / Papp a - b (mean)
MDCKII corrected efflux ratio =
Papp b - a /a - b ratio in transfected MDCKII cells
Papp b - a /a - b ratio in MDCKII control cells (mean)

MDR1 [4] = target: T1, MDR1; test: as above; format: in vitro ADME; remark: listed apart in the source
[5] = 200 mg b.i.d. for 7 doses before resection, 9 samples from 3 patients
[6] = 21 tumor margin samples, 9 dose expansion patients
[7] = MDCK-MDR1, with ketoconazole 25 µM, read-out: Papp b-a + ketoconazole (SD)

T1 sequence (P08183 whole entry): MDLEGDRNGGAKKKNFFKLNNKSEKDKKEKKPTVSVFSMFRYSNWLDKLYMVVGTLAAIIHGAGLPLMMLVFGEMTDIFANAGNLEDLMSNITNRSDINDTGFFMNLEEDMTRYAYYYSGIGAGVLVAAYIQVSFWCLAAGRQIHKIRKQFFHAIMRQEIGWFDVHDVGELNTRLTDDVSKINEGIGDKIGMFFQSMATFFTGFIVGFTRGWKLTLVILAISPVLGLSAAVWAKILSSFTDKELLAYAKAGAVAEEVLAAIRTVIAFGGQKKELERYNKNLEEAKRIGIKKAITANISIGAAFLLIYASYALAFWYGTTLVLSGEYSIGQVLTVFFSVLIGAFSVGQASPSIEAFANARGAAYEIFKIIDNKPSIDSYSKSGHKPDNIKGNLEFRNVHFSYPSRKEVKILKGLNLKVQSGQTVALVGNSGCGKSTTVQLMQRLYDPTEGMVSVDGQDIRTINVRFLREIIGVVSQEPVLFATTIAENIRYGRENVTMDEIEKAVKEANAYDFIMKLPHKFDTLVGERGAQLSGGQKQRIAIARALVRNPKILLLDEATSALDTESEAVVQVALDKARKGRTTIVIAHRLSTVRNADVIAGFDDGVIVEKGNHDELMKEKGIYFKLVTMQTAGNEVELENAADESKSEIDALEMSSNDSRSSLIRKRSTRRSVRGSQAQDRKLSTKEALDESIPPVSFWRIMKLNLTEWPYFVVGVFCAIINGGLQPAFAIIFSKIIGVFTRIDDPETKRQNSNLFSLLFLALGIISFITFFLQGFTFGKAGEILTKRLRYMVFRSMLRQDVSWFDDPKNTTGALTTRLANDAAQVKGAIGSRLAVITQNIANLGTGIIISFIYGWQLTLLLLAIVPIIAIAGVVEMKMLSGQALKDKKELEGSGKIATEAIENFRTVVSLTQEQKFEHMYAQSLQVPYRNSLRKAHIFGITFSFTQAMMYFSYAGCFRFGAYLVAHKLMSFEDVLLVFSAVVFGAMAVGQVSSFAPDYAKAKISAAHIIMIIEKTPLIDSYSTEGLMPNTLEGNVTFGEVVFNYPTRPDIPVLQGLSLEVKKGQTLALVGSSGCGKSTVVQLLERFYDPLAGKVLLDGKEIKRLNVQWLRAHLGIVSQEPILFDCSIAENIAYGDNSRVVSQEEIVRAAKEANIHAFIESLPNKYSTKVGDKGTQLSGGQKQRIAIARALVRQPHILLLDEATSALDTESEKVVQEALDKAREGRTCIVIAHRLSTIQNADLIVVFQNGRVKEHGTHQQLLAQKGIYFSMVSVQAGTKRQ

For O=C(c1cc(Cc2n[nH]c(=O)c3ccccc23)ccc1F)N1CCN(C(=O)C2CC2)CC1 [olaparib, 4-[3-(4-cyclopropanecarbonylpiperazine-1-carbonyl)-4-fluorobenzyl]-2H-phthalazin-1-one], the “mean olaparib concentration in stage 1 tumor samples” value [1, 5] was 471 nM, the “olaparib concentration in stage 1 tumor samples, range” value [1, 5] was 164 to 992 nM and the “tumor margin specimens with olaparib detected” value ([1]; 9 patients) was 21/21. The “tumor margin olaparib concentration, median” value [1, 6] was 512.3 nM, the “tumor margin olaparib concentration, range” value [1, 6] was 97 to 1237 nM and the “tumor core specimens with olaparib detected” value ([1]; 27 patients) was 71/71. For the same molecule, the “tumor core olaparib concentration, range” value ([1]; 71 tumor core samples, 27 surgical patients) was 97 to 1374 nM, the “tumor core olaparib concentration, median” value ([1]; 71 tumor core samples, 27 surgical patients, 3–5 hours after final preoperative dose) was 496 nM and the Kp ([1]; mean) was 0.25. For the same molecule, the Kp ([1]; range) was 0.01 to 0.9, the “tumor olaparib concentrations, range in all specimens” value ([1]; tumor core and margin) was 100 to 1000 nM and the “changes in perfusion or permeability parameters between baseline and post-olaparib scans” value (recurrent GBM) was “no significant changes”. For the same molecule, the “SER (95% CI) 100nM” value (G1 cells) was 1.225 (1.01 - 1.513), the “SER (95% CI) 100nM” value (E2 cells; olaparib 100 nM) was 1.237 (1.065 - 1.441) and the “SER (95% CI) 500nM” value (E2 cells; olaparib 500 nM) was 1.221 (1.076 - 1.378). For the same molecule, the “olaparib in contralateral hemisphere” value ([2]; 5 and 24 hours) was “undetectable”, the “olaparib in tumor specimens” value ([2]; 5 hours) was “detectable in one tumor specimen” and the concentration at 2 h ([2]; CD1 nude, mouse, contralateral (non-tumor bearing) brain, oral, contralateral (non-tumor bearing) cerebral hemisphere olaparib concentration, median, 50 mg/kg oral gavage) was 84 nM. For the same molecule, the concentration at 2 h ([2]; CD1 nude, mouse, contralateral (non-tumor bearing) brain, oral, contralateral (non-tumor bearing) cerebral hemisphere olaparib concentration, range, 50 mg/kg oral gavage) was 53 to 114 nM, the concentration at 2 h ([2]; CD1 nude, mouse, plasma, oral, plasma olaparib level, median, 50 mg/kg oral gavage) was 1590 nM and the concentration at 5 h ([2]; CD1 nude, mouse, plasma, oral, plasma olaparib level, median, 50 mg/kg oral gavage, 5 hours) was 230 nM. The concentration at 2 h ([2]; CD1 nude, mouse, plasma, oral, plasma olaparib level, range, 50 mg/kg oral gavage) was 773 to 2830 nM, the concentration at 2 h ([2]; CD1 nude, mouse, tumor, po, tumor olaparib concentration, median, intracranial G7 xenograft, 50 mg/kg oral gavage) was 347 nM and the concentration at 2 h ([2]; CD1 nude, mouse, tumor, po, tumor olaparib concentration, range, intracranial G7 xenograft, 50 mg/kg oral gavage, 4 mice) was 110 to 2780 nM. For the same molecule, the Papp A→B at 120 min, 1 µM (MDR1 [3]; MDCK-MDR1) was 0.28 ×10⁻⁶ cm/s, the Papp A→B at 120 min, 10 µM (MDR1 [3]; MDCK-MDR1) was 0.58 ×10⁻⁶ cm/s and the Papp B→A at 120 min, 1 µM (MDR1 [3]; MDCK-MDR1) was 40.6 ×10⁻⁶ cm/s. It also gave a Papp B→A at 120 min, 10 µM (MDR1 [3]; MDCK-MDR1, read-out: Papp b-a (SD)) of 39.4 ×10⁻⁶ cm/s, a Papp B→A at 120 min, 1 µM (MDR1 [3]; [7]) of 24.1 ×10⁻⁶ cm/s and a Papp B→A at 120 min, 10 µM (MDR1 [3]; [7]) of 17.1 ×10⁻⁶ cm/s. For the same molecule, the Papp A→B at 120 min, 3 µM (MDR1 [4]; human, MDCK-MDR1) was 0.53 ×10⁻⁶ cm/s, the Papp B→A at 120 min, 3 µM (MDR1 [4]; human, MDCK-MDR1, with ketoconazole 25 µM, read-out: Papp b-a + ketoconazole (SD)) was 16.3 ×10⁻⁶ cm/s and the Papp B→A at 120 min, 3 µM (MDR1 [4]; human, MDCK-MDR1, read-out: Papp b-a (SD)) was 42.7 ×10⁻⁶ cm/s. The MDR1 substrate status (MDR1 [4]; olaparib 1–10 µM) was “substrate for multidrug resistance protein 1; also recorded: substrate for MDR1” and the “reduction of apparent permeability of MDCKII-MDR1 cells to olaparib by ketoconazole” value (MDR1 [4]; olaparib 1–10 µM, ketoconazole 25 µM) was 40–62%.

From article PMC7746945 (Neuro-Oncology, 2020)
